Source: US20100003332A1, “Process For Preparing Powder Comprising Nanoparticles of Sparingly Soluble Drug” (Amorepacific Corporation, priority 2006, published 2010)
Read-outs that look alike come from different tables or passages of the source.

Key:
[1] = Particle size of cilostazol (lactose/SLS ratio) after redispersion of slurry or dried powder in distilled water, laser scattering particle size analyzer; type: physicochemical
Procedure: 0.45 g of cilostazol (Dongwoo Co., Ltd.) and 0.15 g of hydroxypropyl cellulose were added to 5.1 ml of the saturated aqueous solution of lactose. […] The slurry mixture thus obtained was high-pressure filtered (pressure: 640 mmHg) using a sound pressure and freeze dried for 1 day to obtain powders.

[2] = Particle size of active ingredient (cilostazol, fenofibrate, itraconazole) powders redispersed in distilled water, laser scattering particle size analyzer; type: physicochemical; conditions: powder redispersed in aqueous solution, surface stabilizer HPC, dispersion agent SUCROSE
Procedure: 1.2 g of each of the active ingredient, 0.2 g of hydroxypropyl cellulose and 1.2 g of sucrose were added to 6.1 g of distilled water containing a saturated solution of sucrose, an appropriate amount of zirconia bead having the average particle size of 1 mm were added thereto, and the mixture was roll ground at a rate of 108 rpm for 5 days. The slurry mixture thus obtained was screened to remove the beads, and the residue was high-pressure filtered (pressure: 640 mmHg) using the sound pressure, followed by vacuum drying to obtain powders.

[3] = Particle size of cilostazol (lactose/SLS ratio) after redispersion of slurry or dried powder in distilled water, laser scattering particle size analyzer; type: physicochemical; conditions: Lactose 225 g, SLS 225 g
[4] = Procedure: 0.15 g of naproxen (TCI Chem) having an average particle size of 3 to 10 μm, 0.15 g of lactose and 0.03 g of hydroxypropy cellulose (HPC) were added to 3.4 ml of a saturated aqueous solution of lactose, and the mixture was wet ground using an oscillating mill at the room temperature for 30 minutes. The slurry mixture thus obtained was centrifuged at 4° C., 15,000 rpm for 30 minutes, and the residue in the bottom layer was vacuum dried for 24 hours to obtain a powder.
In the above process, the averaged particle size of naproxen particles was measured for 1) a test solution obtained by redispering 0.02 ml of the slurry mixture obtained after wet grinding in 10 ml of distilled water, and 2) an another test solution obtained by redispersing 0.01 g of the dried powder in 8 ml of distilled water, by using a laser scattering particle size analyzer (LA-910, Horiba). The redispersion was conducted by shaking the mixture with a hand.
Additional powders were prepared by repeating the above-mentioned procedure except for using sucrose, mannitol, trehalose, sorbitol and xylitol, respectively, instead of lactose, and naproxen particle sizes were measured by the same procedure.

[5] = Bioavailability test: blood drug concentration after oral administration of suspensions to rats; type: in vivo; conditions: rat, suspension in distilled water, male rats fasted for 12 hours
Procedure: In order to investigate the bioavailability of the powder according to the present invention, cilostazol powder prepared in Example 6 and unprocessed cilostazole as a control group (average particle size: 3 to 5 μm, Dongwoo Co., Ltd.) were suspended in distilled water, respectively. The suspensions having equivalent amounts of cilostazole were each orally administered to three male rats fasted for 12 hours. Blood samples were taken from the ophthalmic vein of the rats immediately after the administration, and 0.5, 1, 2, 4 and 7 hours after the administration to determined the blood drug concentration changes with time. Also the maximum blood concentration (Cmax, μg/ml) and the area under the blood drug concentration-time curve (AUC, μg*hr/ml) were calculated, and the results are shown in Table 8.

[6] = Particle size of tacrolimus in redispersed powder with and without ultrasonic irradiation, laser scattering particle size analyzer; type: physicochemical; conditions: lactose
Procedure: 0.01 g of each of the powders thus obtained was redispersed using an ultrasonic irradiation (frequency: 39 kHz). The particle of the tacrolimus was measured by using a laser scattering particle size analyzer (LA0910, Horiba) for each of the test solution with and without the ultrasonic irradiation, and the results are shown in Table 4.

[7] = drying powder redispersed, Lactose 90 g, SLS 360 g
[8] = drying powder redispersed, Lactose 360 g, SLS 90 g
[9] = slurry mixture redispersed after wet grinding, Lactose 90 g, SLS 360 g
[10] = slurry mixture redispersed after wet grinding, Lactose 225 g, SLS 225 g
[11] = slurry mixture redispersed after wet grinding, Lactose 360 g, SLS 90 g
[12] = HPC, amount of lactose 20% by weight of active ingredient
[13] = HPC, amount of lactose 60% by weight of active ingredient
[14] = HPC, amount of lactose 100% by weight of active ingredient
[15] = HPC, amount of lactose 140% by weight of active ingredient
[16] = HPC, amount of lactose 180% by weight of active ingredient
[17] = dispersion agent Lactose, surface stabilizer PVP 10,000
[18] = dispersion agent Lactose, surface stabilizer PVP 29,000
[19] = dispersion agent Lactose, surface stabilizer PVP 55,000
[20] = dispersion agent Lactose, surface stabilizer PVP 130,000
[21] = dried powder redispersed in distilled water, surface stabilizer HPC, dispersion agent Lactose
[22] = dried powder redispersed, HPC, dispersion agent Mannitol
[23] = dried powder redispersed, HPC, dispersion agent Sorbitol
[24] = dried powder redispersed, HPC, dispersion agent Sucrose
[25] = dried powder redispersed, HPC, dispersion agent Trehalose
[26] = dried powder redispersed, HPC, dispersion agent Xylitol

Compound: O=C1CCc2cc(OCCCCc3nnnn3C3CCCCC3)ccc2N1 [Cilostazol, cilostazol]
- Average particle size [1, 7]: 350 nm
- Particle size range D10 [1, 7]: 230 nm
- Particle size range D50 [1, 7]: 340 nm
- Particle size range D90 [1, 7]: 390 nm
- Average particle size ([1]; drying powder redispersed, Lactose 225 g, SLS 225 g): 360 nm
- Average particle size [1, 8]: 200 nm
- Particle size range D10 [1, 8]: 150 nm
- Particle size range D50 [1, 8]: 200 nm
- Particle size range D90 [1, 8]: 270 nm
- Average particle size [1, 9]: 340 nm
- Particle size range D10 [1, 9]: 230 nm
- Particle size range D50 [1, 9]: 340 nm
- Particle size range D90 [1, 9]: 470 nm
- Average particle size [1, 10]: 340 nm
- Particle size range D10 [1, 10]: 230 nm
- Particle size range D90 [1, 10]: 470 nm
- Average particle size [1, 11]: 190 nm
- Particle size range D10 [1, 11]: 140 nm
- Particle size range D50 [1, 11]: 180 nm
- Particle size range D90 [1, 11]: 250 nm
- Average particle size [2]: 170 nm
- Range of particle size ([2]; in nm): 120~228
- Particle size range D10 ([3]; drying powder redispersed): 240 nm
- Particle size range D50 ([3]; drying powder redispersed): 350 nm
- Particle size range D90 ([3]; drying powder redispersed): 490 nm
- Particle size range D50 ([3]; slurry mixture redispersed after wet grinding): 330 nm

Compound: COc1ccc2cc([C@H](C)C(=O)O)ccc2c1 [Naproxen, naproxen]
- Average particle size [4, 12]: 3,025 nm
- Particle Size (D10~D90) [4, 12]: 154~4,292 nm
- Average particle size [4, 13]: 500 nm
- Particle Size (D10~D90) [4, 13]: 339~629 nm
- Average particle size [4, 14]: 164 nm
- Particle Size (D10~D90) [4, 14]: 40~260 nm
- Average particle size [4, 15]: 391 nm
- Particle Size (D10~D90) [4, 15]: 109~316 nm
- Average particle size [4, 16]: 208 nm
- Particle Size (D10~D90) [4, 16]: 108~310 nm
- Average particle size [4, 17]: 16,800 nm
- Particle Size (D10~D90) [4, 17]: 868.3~507.1 nm
- Average particle size [4, 18]: 156.9 nm
- Particle Size (D10~D90) [4, 18]: 95.9~208.7 nm
- Average particle size [4, 19]: 192.4 nm
- Particle Size (D10~D90) [4, 19]: 120.8~250.3 nm
- Average particle size [4, 20]: 275.8 nm
- Particle Size (D10~D90) [4, 20]: 150.6~417.5 nm
- Average particle size [4, 21]: 164.1 nm
- Particle Size (D10~D90) [4, 21]: 40.3~259.6 nm
- Average particle size ([4]; dried powder redispersed in distilled water, surface stabilizer HPC, dispersion agent Lactose, listed as naproxen): about 164 nm
- Average particle size [4, 22]: 450 nm
- Particle Size (D10~D90) [4, 22]: 319.8~564.6 nm
- Average particle size [4, 23]: 413.6 nm
- Particle Size (D10~D90) [4, 23]: 280.4~532.7 nm
- Average particle size [4, 24]: 297.1 nm
- Particle Size (D10~D90) [4, 24]: 192.9~393.9 nm
- Average particle size [4, 25]: 241.6 nm
- Particle Size (D10~D90) [4, 25]: 162.8~312.5 nm
- Average particle size [4, 26]: 637.9 nm
- Particle Size (D10~D90) [4, 26]: 291.3~675.9 nm
- average particle size of naproxen particles ([4]; slurry mixture after wet grinding redispersed in distilled water, HPC, lactose): about 133 nm

Compound: O=C1CCc2cc(OCCCCc3nnnn3C3CCCCC3)ccc2N1 [Cilostazol raw material, cilostazol]
- Cmax ([5]; read-out: Cmax (maximum blood concentration)): 150 ± 80 ng/mL
- AUC ([5]; samples to 7 hours, read-out: AUC (area under the blood drug concentration-time curve)): 580 ± 90 ng·h/mL

Compound: C=CC[C@@H]1/C=C(\C)C[C@H](C)C[C@H](OC)[C@H]2O[C@@](O)(C(=O)C(=O)N3CCCC[C@H]3C(=O)O[C@H](/C(C)=C/[C@@H]3CC[C@@H](O)[C@H](OC)C3)[C@H](C)[C@@H](O)CC1=O)[C@H](C)C[C@@H]2OC [tacrolimus]
- Particle size according to the ultrasonic irradiation time ([6]; surface stabilizer Hydroxyproply cellulose, 0 minute ultrasonic irradiation): 4,980 nm
- Particle size according to the ultrasonic irradiation time ([6]; surface stabilizer Hydroxyproply cellulose, 1 minute ultrasonic irradiation (39 kHz)): 220 nm
- Particle size according to the ultrasonic irradiation time ([6]; surface stabilizer Poloxamer 407, 0 minute ultrasonic irradiation): 510 nm
- Particle size according to the ultrasonic irradiation time ([6]; surface stabilizer Poloxamer 407, 1 minute ultrasonic irradiation (39 kHz)): 420 nm
- Particle size according to the ultrasonic irradiation time ([6]; surface stabilizer Polyvinylpyrrolidone, 0 minute ultrasonic irradiation): 1,561 nm
- Particle size according to the ultrasonic irradiation time ([6]; surface stabilizer Polyvinylpyrrolidone, 1 minute ultrasonic irradiation (39 kHz)): 610 nm
